Values of other authors, collected in patent US6602521B1, “Multiplex drug delivery system suitable for oral administration” (Impax Pharmaceuticals, Inc., priority 1998, dated 2003).

O=[N+]([O-])O[C@@H]1CO[C@H]2[C@@H]1OC[C@@H]2O [Isosorbide mononitrate, 1,4:3,6-dihydro-D-glucitrol 5-nitrate]
absorption from the gastrointestinal tract (gastrointestinal tract): rapidly and completely absorbed
rate of clearance (healthy young adults vs patients with various degrees of renal, hepatic, or cardiac dysfunction): the same
first pass metabolism in the liver (in humans): not subject to first pass metabolism
overall elimination half-life (in vivo): about 6 hours
